Data on four compounds can be found in patent US11639494B2, “Culture medium” (Vitrolife Sweden AB, priority 2015, dated 2023).

The subject of one assay is embryos. Put plainly: Group embryo culture in 20% oxygen, blastocyst cell numbers by differential staining. The settings on record: 20% O2; for optimal dose (dose that resulted in significantly higher cell numbers): single compound. It counts as cell-based, mice.
For a further assay, the system named is glutathione (GSH). As to the kind of experiment: BSO/MCB probe dosage optimisation and verification of MCB specificity to glutathione. It counts as cell-based, mice. As for the experimental part: Embryos were cultured in groups of 10 in 20 ul drops of media under paraffin oil (Ovoil, Vitrolife) in 6% CO2, 20% O2 74% N2 at 37° C. in a humidified multi gas incubator (Sanyo MCOK-5M[RC], Japan). Half of the embryos were allocated to the control group and the other half to the treatment group. Control group embryos were cultured in G-1™ medium (G-1™ with HSA-Solution™, Vitrolife) […]. Treatment group embryos were likewise cultured with the optimal triple antioxidant dose supplemented in the G-1™ medium (as determined in Example 2).
Immediately after collection, pronucleate control embryos were incubated in G-1™ medium spiked with BSO at doses of 0, 50, 100, 200, 400, 800, 1600 μM for 4 hours at 6% CO2, 20% O2 74% N2 at 37° C. Embryos were rinsed thoroughly in G-1™ with HSA-Solution™ media and placed individually in 2 μl drops of GMOPS with HSA-Solution™ (G-MOPS™ Plus, Vitrolife AB, Sweden) made on glass bottom dishes (Fluorodish, Coherent Scientific, Australia) and overlayed with paraffin oil (Ovoil, Vitrolife) for fluorescence imaging. Optimal dosage was determined by recording the fluorescence at 360±40 nm/460±40 nm excitation/emission wavelengths under a fluorescence microscope (Nikon Eclipse TS100). Results were calculated by subtracting the values of blank (embryos with no BSO exposure) and basal levels of the culture media from the fluorescence recorded. […]

Molecules are shown by their SMILES.

Method for embryos: F1 virgin hybrid female mice (C57BL/6×CBA) at 3-4 weeks old were intraperitoneally injected with 5 IU of pregnant mare's serum gonadotrophin. 48 hours later 5 IU of human chorulon gonadotrophin was administered and the female mice mated with F1 male mice >12 weeks old. Successful mating was confirmed by the presence of a vaginal mucus plug the following morning. Pronucleate oocytes were collected 22 hours after hCG injection, in pre-warmed handling medium (G-MOPS) supplemented with 5 mg/ml human sera albumin. Cumulus cells were denuded from the oocytes with GMOPS containing 300 IU/ml hyaluronidase. All embryos were washed twice in G-MOPS media and once in G-1™ medium prior to allocation for culture. Animals were housed in 12 hour light-day photoperiod with food and water available ad libitum.
Embryos were cultured in groups of 10 in 20 ul drops of media under paraffin oil in 6% CO2 in air (atmospheric oxygen ˜20%) or at 6% CO2 5% oxygen at 37° C. in a humidified multi gas incubator (Sanyo MCOK-5M[RC], Japan). Embryos were cultured in G-1™ medium (G-1™ with HSA-Solution™, Vitrolife) for 48 hours and then for a further 48 hours in G-2™ medium (G-2™ with HSA-Solution™, Vitrolife). […] All cultures were performed in 35 mm petri dishes (Falcon, BD Biosciences).
Differential staining of embryos was performed by techniques commonly known in the art to determine the allocation of cells to the inner cell mass (ICM) and trophectoderm (TE) on day 5 (e.g. in the blastocyst). Briefly, after zona removal using pronase, embryos were treated with a complement reaction which labels the in TE nuclei with propidium iodide and leaves the ICM intact and unlabelled. Following bisbenzimide treatment, all nuclei were stained. Embryos were whole-mounted in glycerol and imaged using an inverted fluorescence microscope (Nikon Eclipse TS100) fitted with a digital camera (Nikon digital sight DS-Fi1) and nuclei counted using imaging software ImageJ.
Embryos cultured in control groups were grown in G-™1 and G-2™ medium supplemented with HSA 5 mg/ml (HSA, Vitrolife). Embryos in treatment groups were similarly cultured with Acetyl Carnitine, Acetyl Cysteine or α-Lipoic acid Sigma Aldrich, USA) supplemented in the G-1™ and G-2™ medium at doses of 1, 10 and 100 μM and supplemented with HSA as the control group. […] The “total mean” means the average total number of cells in the embryo (including inner cell mass and trophectoderm) at day 5.
Embryos cultured in control groups were grown in G-1™ and G-2™ medium supplemented with HSA-Solution™ 5 mg/ml. Embryos in treatment groups were similarly cultured with 10 μM Acetyl Carnitine-10 μM Acetyl Cysteine, 10 μM Acetyl Carnitine-5 μM Lipoic acid, 10 μM Acetyl Cysteine-5 μM Lipoic acid, the triple cocktail of 10 μM Acetyl Carnitine-10 μM Acetyl Cysteine 5 μM Lipoic acid supplemented in the G-1™ and G-2™ medium and supplemented with HSA.

`O=C(O)CCCCC1CCSS1` (stereo not drawn) [lipoic acid, α-lipoic acid]: the “Total Mean (average total number of cells in the embryo at day 5)” value (“Total Mean” below) in the assay on embryos (5 μM in G-1 and G-2 medium) stood at 90.2; in the assay with embryos (10 μM in G-1 and G-2 medium), 91.3; with embryos (20 μM in G-1 and G-2 medium), 94; with embryos (80 μM in G-1 and G-2 medium), 34.0. The “optimal dose (dose that resulted in significantly higher cell numbers)” value in the assay with embryos stood at 5 µM.
For the compound `CC(=O)N[C@@H](CS)C(=O)O` [Acetyl Cysteine, N-acetyl-L-cysteine], the “Total Mean” value in the assay with embryos (1 μM in G-1 and G-2 medium) worked out at 81.92; in the assay on embryos (10 μM in G-1 and G-2 medium), 109.29; with embryos (30 μM in G-1 and G-2 medium), 104.38; in the assay on embryos (1000 μM in G-1 and G-2 medium), 95.17. Moreover, the “optimal dose (dose that resulted in significantly higher cell numbers)” value with embryos was determined as 10 µM.
For `CCCCS(=N)(=O)CCC(N)C(=O)O` (centres unmarked) [BSO, buthionine sulfoximine], the “MCB fluorescence, BSO treated versus non-BSO treated group” value with glutathione (GSH) (200 μM BSO, 80 μM MCB) was “no significant differences”. Also, the “MCB fluorescence compared to groups treated with MCB only” value in the assay with glutathione (GSH) (pre-treated with 200 μM BSO, then 10 μM/ml or 40 μmol/ml MCB) is given as “significantly reduced fluorescence”.
For `CC(=O)O[C@H](CC(=O)[O-])C[N+](C)(C)C` [Acetyl Carnitine, acetyl-L-carnitine], the “Total Mean” value with embryos (1 μM in G-1 and G-2 medium) was 95.85; in the assay with embryos (10 μM in G-1 and G-2 medium) it was 107.83; in the assay on embryos (30 μM in G-1 and G-2 medium), 86.93; in the assay on embryos (1000 μM in G-1 and G-2 medium), 67.41. For the same compound, the “optimal dose (dose that resulted in significantly higher cell numbers)” value in the assay on embryos amounted to 10 µM.
